Paper PMC6689975, “Novel Cell Wall Antifungals Reveal a Special Synergistic Activity in pbr1 Mutants Resistant to the Glucan Synthesis Antifungals Papulacandins and Echinocandins” (Frontiers in Microbiology, 2019)
Converted amounts (≈) assume the structure as drawn. Where two headings read alike, the source gives them in different places.

Assays:
Assay in all cases: microbe, parasite or virus in culture
C. albicans wild-type [1] = system: C. albicans wild-type; design: species or system whole yeast cells; micro-culture broth dilution MIC in YES at 30 C, turbidity, complete growth inhibition; conditions: Candida albicans, read-out: MIC
Description: (§1) Standard YEPD (Yeast Extract, Peptone, Dextrose) ([Sherman, 1990]), YEPD+S (YEPD with 1.2M sorbitol), YES (Yeast Extract, Dextrose and Supplements of Adenine, Histidine, Leucine, Uracil and Lysine) ([Alfa et al., 1993]) and YES+S (YES with 1.2 M sorbitol) ([Ribas et al., 1991]; [Ishiguro et al., 1997]), media were used for determination of MIC values of the tested compounds. A stock solution of 10 mg/ml of each tested compounds was prepared in DMSO and serial dilutions in DMSO were prepared. The final concentration of DMSO was 2% in the YEPD medium. […] The serial dilutions of compounds were dispensed into test tubes with 1 ml of YEPD or YEPD+S to make final concentrations of 200, 100, 50, 25, 12.5, 6.26, 3.125, 1.6, 0.8 and 0.4 μg/ml. The tested yeast strains were previously grown in YEPD, YEPD+S, YES or YES+S agar plates at 30°C for 48 h. Micro-culture assays of large numbers of samples were analyzed as described) ([Martins et al., 2011]). Essentially early log-phase cells were grown in YEPD, YEPD+S, YES or YES+S (1.2 M sorbitol) medium at 30°C, and diluted to cell density of 4 X 10^6 cells/ml in YEPD, YEPD+S, YES or YES+S medium and aliquots of 100 μl were dispensed into each small test tube (3 ml test tube size). Then, another 100 μl of YEPD, YEPD+S, YES or YES+S with the corresponding dilution of each compound at 2X concentration (4% DMSO) was added. The final volume was 200 μl, with the cells diluted to of 2 X 10^6 cells/ml and each compound diluted to 1X final concentration, containing increasing concentrations of antifungal (0, 1, 2, 5, 10, 20, 50, 100 and 200 μg/ml) or an equivalent volume of solvent (2% DMSO). The cells were grown at 30°C in an orbital roller and turbidity was analyzed after 24 and 48 h of incubation. The MIC was determined as the minimal concentration of tested compound that produced complete cell growth inhibition and kept the medium clear. The MIC values were calculated from at least three independent experiments. Next, the first generation of isochromanones (1E-16E) was also screened in YES medium (Table 5) and exerted a weaker antifungal potency than in YEPD medium and also than the second family of isochromanones in YES medium (17E-30E) (Table 6). The strains are partly different from the previously mentioned ones (Tables 5, 6) analyzing two wild type C. albicans strains because they behaved similarly in YEPD. It is remarkable that there was no effect against either the C. albicans, the S. cerevisiae, or the S. pombe wild-type strains, except with 30E.

[2] = system: T1, S. cerevisiae wild-type CVX12-3A; design: species or system whole yeast cells; micro-culture broth dilution MIC in YES at 30 C, turbidity, complete growth inhibition; conditions: Saccharomyces cerevisiae, read-out: MIC
T1 construct: CVX12-3A
Description: as §1

[3] = system: T2, S. pombe wild-type 972 h-; design: species or system whole yeast cells; micro-culture broth dilution MIC in YES at 30 C, turbidity, complete growth inhibition; conditions: Schizosaccharomyces pombe, read-out: MIC
T2 construct: 972 h-
Description: as §1

C. albicans wild-type [4] = system: C. albicans wild-type; design: species or system whole yeast cells; micro-culture broth dilution MIC in YES at 30 C, turbidity, complete growth inhibition; conditions: Candida albicans, read-out: MIC; remark: listed apart in the source
Description: as §1

C. albicans wild-type [5] = system: C. albicans wild-type; design: species or system whole yeast cells; macro tube broth dilution MIC in YEPD at 30 C, visual clearness of medium; conditions: Candida albicans, 48 h, read-out: MIC
Description: (§2) Standard YEPD (Yeast Extract, Peptone, Dextrose) ([Sherman, 1990]), YEPD+S (YEPD with 1.2M sorbitol), YES (Yeast Extract, Dextrose and Supplements of Adenine, Histidine, Leucine, Uracil and Lysine) ([Alfa et al., 1993]) and YES+S (YES with 1.2 M sorbitol) ([Ribas et al., 1991]; [Ishiguro et al., 1997]), media were used for determination of MIC values of the tested compounds. A stock solution of 10 mg/ml of each tested compounds was prepared in DMSO and serial dilutions in DMSO were prepared. The final concentration of DMSO was 2% in the YEPD medium. […] The serial dilutions of compounds were dispensed into test tubes with 1 ml of YEPD or YEPD+S to make final concentrations of 200, 100, 50, 25, 12.5, 6.26, 3.125, 1.6, 0.8 and 0.4 μg/ml. The tested yeast strains were previously grown in YEPD, YEPD+S, YES or YES+S agar plates at 30°C for 48 h. For inoculation of YEPD or YEPD+S macro test tubes a suspension of tested fungus was produced with 10^5 cfu/ml (cfu - colony forming unit). 10 μl of suspension was used for inoculation of each tube. After 48 h incubation at 30°C the tubes were checked. The MIC value is the lowest concentration of the tested compound that could inhibit the fungal growth and the medium remained clear. From each tube 10 μl culture was plated on YEPD agar medium to check the contamination. The MIC tests were carried out in three parallels. The screening of the first generation of isochromanones was carried out in YEPD and YEPD+S media (1E-16E). The fungal strains analyzed are: C. albicans wild-type ATCC 26555, SC5314 and ATCC 90028, S. cerevisiae wild-type CVX12-3A and pbr1-1 mutant, and S. pombe wild-type (972h^–), pbr1-8 mutant and pbr1-6 mutant. The bold numbers in Tables 4–6 indicate the more efficient compounds. […] The weak or moderate efficacy against the C. albicans wild-type strains was observed by some substances (3E, 4Z, 5Z, 10E, 15, and 16E). The efficiency toward the S. pombe pbr1-6 mutant strain was the highest inhibitory activity, except 7E, 11E, 12 and 14E. […] As regards the other S. pombe pbr1-8 mutant strain, the antifungal activity of the tested compounds was slightly lower, but the substances with the best activity are partly identical to the best compounds mentioned with pbr1-6, (i.e., 1E, 3E, 4Z, 5Z).

[6] = system: T1, S. cerevisiae wild-type CVX12-3A; design: species or system whole yeast cells; macro tube broth dilution MIC in YEPD at 30 C, visual clearness of medium; conditions: Saccharomyces cerevisiae, 48 h, read-out: MIC
Description: as §2

[7] = system: T2, S. pombe wild-type 972 h-; design: species or system whole yeast cells; macro tube broth dilution MIC in YEPD at 30 C, visual clearness of medium; conditions: Schizosaccharomyces pombe, 48 h, read-out: MIC
Description: as §2

C. albicans wild-type [8] = system: C. albicans wild-type; design: species or system whole yeast cells; macro tube broth dilution MIC in YEPD at 30 C, visual clearness of medium; conditions: Candida albicans, 48 h, read-out: MIC; remark: listed apart in the source
Description: as §2

C. albicans wild-type [9] = system: C. albicans wild-type; design: species or system whole yeast cells; macro tube broth dilution MIC in YEPD at 30 C, visual clearness of medium; conditions: Candida albicans, 48 h, read-out: MIC; remark: listed apart in the source
Description: as §2

Q: With `O=C1OCc2ccccc2/C1=C/c1cccc([N+](=O)[O-])c1` [24Z] as the compound, how does the MIC (C. albicans wild-type [1]) read?
A: > 200 µg/mL

Q: What about the MIC [2] of the same compound?
A: > 200 µg/mL

Q: And the MIC [3]?
A: > 200 µg/mL

Q: What about the MIC (C. albicans wild-type [4]) of the same compound?
A: > 200 µg/mL

Q: `Cc1ccccc1/C=C1/C(=O)OCc2ccccc21` [20E] was tested. Which MIC (C. albicans wild-type [1]) did it give?
A: > 200 µg/mL

Q: And the MIC [2]?
A: > 200 µg/mL

Q: What about the MIC [3] of the same compound?
A: > 200 µg/mL

Q: What about the MIC (C. albicans wild-type [4]) of the same compound?
A: > 200 µg/mL

Q: `O=C1OCc2ccccc2/C1=C\c1ccccc1Cl` [8E] was tested. Which MIC (C. albicans wild-type [5]) did it give?
A: > 200 µg/mL

Q: What about the MIC [6] of the same compound?
A: 100 µg/mL (≈ 369 µM)

Q: What about the MIC [7] of the same compound?
A: 50 µg/mL (≈ 185 µM)

Q: And the MIC (C. albicans wild-type [8])?
A: > 200 µg/mL

Q: What about the MIC (C. albicans wild-type [9]) of the same compound?
A: 200 µg/mL (≈ 739 µM)

Q: What about the MIC (C. albicans wild-type [1]) of the same compound?
A: > 200 µg/mL

Q: What about the MIC [2] of the same compound?
A: > 200 µg/mL

Q: What about the MIC [3] of the same compound?
A: > 200 µg/mL

Q: `COc1cc(/C=C2/C(=O)OCc3ccccc32)cc(OC)c1OC` [25E] was tested. Which MIC (C. albicans wild-type [1]) did it give?
A: > 200 µg/mL

Q: What about the MIC [2] of the same compound?
A: > 200 µg/mL

Q: And the MIC [3]?
A: > 200 µg/mL

Q: What about the MIC (C. albicans wild-type [4]) of the same compound?
A: > 200 µg/mL

Q: What does the source list for `COc1ccc(/C=C2/C(=O)OCc3ccccc32)cc1OC` [26E, E-4-[(3′,4′-Dimethoxyphenyl)Methylene]-3-Isochromanone]?
A: MIC (C. albicans wild-type [1]): > 200 µg/mL; MIC [2]: > 200 µg/mL; MIC [3]: > 200 µg/mL; MIC (C. albicans wild-type [4]): > 200 µg/mL

Q: Which results are given for `O=C1OCc2ccccc2/C1=C\c1cccnc1` [3E]?
A: MIC (C. albicans wild-type [5]): 100 µg/mL (≈ 421 µM); MIC [6]: 50 µg/mL (≈ 211 µM); MIC [7]: 25 µg/mL (≈ 105 µM); MIC (C. albicans wild-type [8]): 100 µg/mL (≈ 421 µM); MIC (C. albicans wild-type [9]): 50 µg/mL (≈ 211 µM); MIC (C. albicans wild-type [1]): > 200 µg/mL; MIC [2]: 200 µg/mL (≈ 843 µM); MIC [3]: 200 µg/mL (≈ 843 µM)

Q: For `O=C1OCc2ccccc2/C1=C\c1ccccc1` [1E], which MIC (C. albicans wild-type [5]) is on record?
A: 200 µg/mL (≈ 846 µM)

Q: And the MIC [6]?
A: 100 µg/mL (≈ 423 µM)

Q: And the MIC [7]?
A: 25 µg/mL (≈ 106 µM)

Q: And the MIC (C. albicans wild-type [8])?
A: 200 µg/mL (≈ 846 µM)

Q: What about the MIC (C. albicans wild-type [9]) of the same compound?
A: 200 µg/mL (≈ 846 µM)

Q: And the MIC (C. albicans wild-type [1])?
A: > 200 µg/mL

Q: And the MIC [2]?
A: > 200 µg/mL

Q: And the MIC [3]?
A: > 200 µg/mL

Q: What does the source list for `COc1cccc(/C=C2/C(=O)OCc3ccccc32)c1OC` [9E]?
A: MIC (C. albicans wild-type [5]): 100 µg/mL (≈ 337 µM); MIC [6]: 100 µg/mL (≈ 337 µM); MIC [7]: 50 µg/mL (≈ 169 µM); MIC (C. albicans wild-type [8]): 100 µg/mL (≈ 337 µM); MIC (C. albicans wild-type [9]): 100 µg/mL (≈ 337 µM); MIC (C. albicans wild-type [1]): > 200 µg/mL; MIC [2]: > 200 µg/mL; MIC [3]: > 200 µg/mL

Q: Which results are given for `O=C1OCc2ccccc2/C1=C\c1cccc([N+](=O)[O-])c1` [24E]?
A: MIC (C. albicans wild-type [1]): > 200 µg/mL; MIC [2]: > 200 µg/mL; MIC [3]: > 200 µg/mL; MIC (C. albicans wild-type [4]): > 200 µg/mL

Q: How did the MIC (C. albicans wild-type [5]) turn out when `O=C1OCc2ccccc2/C1=C\c1ccc(C(=O)O)cc1` [2E] was run?
A: 200 µg/mL (≈ 714 µM)

Q: What about the MIC [6] of the same compound?
A: 100 µg/mL (≈ 357 µM)

Q: What about the MIC [7] of the same compound?
A: 50 µg/mL (≈ 178 µM)

Q: What about the MIC (C. albicans wild-type [8]) of the same compound?
A: 200 µg/mL (≈ 714 µM)

Q: What about the MIC (C. albicans wild-type [9]) of the same compound?
A: 200 µg/mL (≈ 714 µM)

Q: And the MIC (C. albicans wild-type [1])?
A: > 200 µg/mL

Q: And the MIC [2]?
A: > 200 µg/mL

Q: What about the MIC [3] of the same compound?
A: > 200 µg/mL

Q: `COc1cccc(/C=C2/C(=O)OCc3ccccc32)c1` [22E] was tested. Which MIC (C. albicans wild-type [1]) did it give?
A: > 200 µg/mL

Q: And the MIC [2]?
A: > 200 µg/mL

Q: What about the MIC [3] of the same compound?
A: > 200 µg/mL

Q: What about the MIC (C. albicans wild-type [4]) of the same compound?
A: > 200 µg/mL

Q: With `O=C1OCc2ccccc2/C1=C\c1cccc(Cl)c1` [28E, E-4-[(3′-Chlorophenyl)Methylene]-3-Isochromanone] as the compound, how does the MIC (C. albicans wild-type [1]) read?
A: > 200 µg/mL

Q: What about the MIC [2] of the same compound?
A: > 200 µg/mL

Q: What about the MIC [3] of the same compound?
A: > 200 µg/mL

Q: And the MIC (C. albicans wild-type [4])?
A: > 200 µg/mL
